target: human TRPA1 (Homo sapiens, UniProt O75762); experiment: FLIPR Ca2+ assay, reduction of hydrogen peroxide activation of TRPA1; type: cell-based; parameters: expressed in transfected cells; conditions: not given
Experimental: After centrifugation, a pellet of cells was formed in the bottom of the tube separating them from the supernatant solution.
The pelleted cells were re-suspended in 10 ml assay buffer and 90 μl aliquots (˜50,000 cells) per well delivered to a 96-well assay plate containing 10 μl of test compounds ([…]) or buffer control and incubated at room temperature for 30 minutes.

Chain of human TRPA1 (O75762 whole entry): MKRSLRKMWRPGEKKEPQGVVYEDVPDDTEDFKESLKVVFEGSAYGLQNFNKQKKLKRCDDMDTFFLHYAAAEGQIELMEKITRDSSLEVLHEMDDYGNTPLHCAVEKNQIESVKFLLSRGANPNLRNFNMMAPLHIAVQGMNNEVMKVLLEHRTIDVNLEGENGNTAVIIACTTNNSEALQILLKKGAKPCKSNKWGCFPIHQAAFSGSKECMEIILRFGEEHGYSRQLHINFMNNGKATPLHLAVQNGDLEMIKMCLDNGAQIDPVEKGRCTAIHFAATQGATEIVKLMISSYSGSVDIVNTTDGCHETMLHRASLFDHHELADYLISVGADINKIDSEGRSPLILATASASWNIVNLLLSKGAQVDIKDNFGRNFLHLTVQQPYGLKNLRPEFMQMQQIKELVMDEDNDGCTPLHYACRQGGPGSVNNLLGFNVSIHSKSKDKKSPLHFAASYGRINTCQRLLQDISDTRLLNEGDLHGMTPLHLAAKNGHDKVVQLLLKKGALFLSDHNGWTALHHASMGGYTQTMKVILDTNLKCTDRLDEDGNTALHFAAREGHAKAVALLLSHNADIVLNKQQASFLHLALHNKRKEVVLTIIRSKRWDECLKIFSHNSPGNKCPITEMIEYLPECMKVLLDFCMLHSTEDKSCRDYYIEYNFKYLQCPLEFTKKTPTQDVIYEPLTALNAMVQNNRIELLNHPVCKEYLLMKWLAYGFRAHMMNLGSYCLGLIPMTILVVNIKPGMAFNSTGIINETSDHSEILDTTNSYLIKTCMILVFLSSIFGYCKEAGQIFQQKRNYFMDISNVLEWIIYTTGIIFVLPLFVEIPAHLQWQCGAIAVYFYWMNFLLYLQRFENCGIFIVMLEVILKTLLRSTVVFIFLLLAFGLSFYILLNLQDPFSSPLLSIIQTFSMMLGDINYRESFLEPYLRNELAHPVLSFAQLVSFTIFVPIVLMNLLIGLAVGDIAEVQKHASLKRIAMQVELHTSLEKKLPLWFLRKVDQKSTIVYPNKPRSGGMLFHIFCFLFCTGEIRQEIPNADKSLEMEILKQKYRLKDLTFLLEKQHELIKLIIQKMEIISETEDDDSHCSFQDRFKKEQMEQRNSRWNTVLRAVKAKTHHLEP

| Structure (SMILES) | % Reduction of Hydrogen Peroxide TRPA1 Activation | Average Ca++ Counts | Block of hydrogen peroxide activation of TRPA1 |
| --- | --- | --- | --- |
| CC1=CC(=O)[C@@H]2C[C@H]1C2(C)C (racemic) [dl-verbenone] | 54.1% | 3231.0 Counts | BLOCK ONLY H2O2/TRPA1 |
| CCCc1ccc(O)c(OC)c1 [2-Methoxy-4-propyl-phenol] |  |  | BLOCK ONLY H2O2/TRPA1 |
| CC1=C(O)C(=O)CC1.O [2-hydroxy-3-methyl-2-cyclopenten-1-one hydrate] |  | 4172.0 Counts |  |
| CC(=O)CCc1ccc2c(c1)OCO2 [4-benzo[1,3]dioxol-5-yl-butan-2-one] |  | 5431.5 Counts | BLOCK ONLY H2O2/TRPA1 |
| CCCCCCC1CCCC(=O)O1 (stereo not drawn) [Undecanoic-δ-Lactone] | −42% |  |  |

same assay, conditions: 100 μM antagonist vs 500 μM hydrogen peroxide

| Structure (SMILES) | Block of hydrogen peroxide activation of TRPA1 |
| --- | --- |
| CC(=O)OCC(C)(C)Cc1ccccc1 | BLOCK ONLY H2O2/TRPA1 |
| CCCCCCO [1-hexanol] | BLOCK ONLY H2O2/TRPA1 |
| C=CC(CCCCC)OC(C)=O (stereo not drawn) [1-octen-3-yl acetate] | BLOCK ONLY H2O2/TRPA1 |
| CCCCCCCCCCCO [1-undecanol] | BLOCK ONLY H2O2/TRPA1 |
| CSCSCSC [2,4,6-trithiaheptane] | BLOCK ONLY H2O2/TRPA1 |
| Cc1ccc(C)c(O)c1 [2,5-dimethylphenol] | BLOCK ONLY H2O2/TRPA1 |
| CCCCCCC1OCC(C)O1 (stereo not drawn) [2-Hexyl-4-methyl-1,3-dioxolane] | BLOCK ONLY H2O2/TRPA1 |
| CCC(C)COC(=O)C(C)CC (stereo not drawn) [2-Methyl butyl 2-methylbutyrate] | BLOCK ONLY H2O2/TRPA1 |
| CC(=O)c1ccc(C)o1 [2-acetyl-5-methylfuran] | BLOCK ONLY H2O2/TRPA1 |
| CCCCC(CC)CO (stereo not drawn) [2-ethyl-1-hexanol] | BLOCK ONLY H2O2/TRPA1 |
| CCC(C)CS (stereo not drawn) [2-methyl-1-butanethiol] | BLOCK ONLY H2O2/TRPA1 |
| CCC=C(C)C(=O)O [2-methyl-2-pentenoic acid] | BLOCK ONLY H2O2/TRPA1 |
| CCOc1nccnc1C [2-methyl-3-ethoxypyrazine] | BLOCK ONLY H2O2/TRPA1 |
| CCCCC(=O)C(C)C [2-methyl-3-heptanone] | BLOCK ONLY H2O2/TRPA1 |
| CCCCCCCC(C)O (stereo not drawn) [2-nonanol] | BLOCK ONLY H2O2/TRPA1 |
| CC=C(C=O)c1ccccc1 [2-phenyl-2-butenal] | BLOCK ONLY H2O2/TRPA1 |
| CCC(=O)c1nccs1 [2-propionylthiazole] | BLOCK ONLY H2O2/TRPA1 |
| CCCCCCCCCC(C)O (stereo not drawn) [2-undecanol] | BLOCK ONLY H2O2/TRPA1 |
| CC(C)CCCC(C)CCO (stereo not drawn) [3,7-Dimethyl-1-octanol] | BLOCK ONLY H2O2/TRPA1 |
| CC(=O)c1cccnc1 [3-acetylpyridine, 98%, 3-acetylpyridine] | BLOCK ONLY H2O2/TRPA1 |
| CCCC(=O)CC [3-hexanone] | BLOCK ONLY H2O2/TRPA1 |
| O=C(O)c1cccc(O)c1 [3-hydroxybenzoic acid] | BLOCK ONLY H2O2/TRPA1 |
| CCC(S)C(C)=O (stereo not drawn) [3-mercapto-2-pentanone] | BLOCK ONLY H2O2/TRPA1 |

same assay, conditions: compound 100 μM against 200 μM hydrogen peroxide; Sets 1-4

| Structure (SMILES) | Average Ca++ Counts |
| --- | --- |
| CCCCCCO [1-hexanol] | 5664.5 Counts |
| C=CC(CCCCC)OC(C)=O (stereo not drawn) [1-octen-3-yl acetate] | 3228.5 Counts |
| CCCCCCCCCCCO [1-undecanol] | 3396.0 Counts |
| CSCSCSC [2,4,6-trithiaheptane] | 4610.5 Counts |
| Cc1ccc(C)c(O)c1 [2,5-dimethylphenol] | 5208.0 Counts |
| CC(=O)c1ccc(C)o1 [2-acetyl-5-methylfuran] | 2937.0 Counts |
| CCCCC(CC)CO (stereo not drawn) [2-ethyl-1-hexanol] | 4960.5 Counts |
| CCC(C)CS (stereo not drawn) [2-methyl-1-butanethiol] | 3208.0 Counts |
| CCC=C(C)C(=O)O [2-methyl-2-pentenoic acid] | 5040.0 Counts |
| CCOc1nccnc1C [2-methyl-3-ethoxypyrazine] | 3197.0 Counts |
| CCCCC(=O)C(C)C [2-methyl-3-heptanone] | 4994.0 Counts |
| CCCCCCCC(C)O (stereo not drawn) [2-nonanol] | 3064.5 Counts |
| CC=C(C=O)c1ccccc1 [2-phenyl-2-butenal] | 3809.0 Counts |
| CCC(=O)c1nccs1 [2-propionylthiazole] | 4875.0 Counts |
| CCCCCCCCCC(C)O (stereo not drawn) [2-undecanol] | 3049.0 Counts |
| CC(=O)c1cccnc1 [3-acetylpyridine, 98%, 3-acetylpyridine] | 2981.0 Counts |
| CCCC(=O)CC [3-hexanone] | 3381.5 Counts |
| O=C(O)c1cccc(O)c1 [3-hydroxybenzoic acid] | 3284.5 Counts |
| CCC(S)C(C)=O (stereo not drawn) [3-mercapto-2-pentanone] | 1255.5 Counts |

same assay, conditions: compound 100 μM against 200 μM hydrogen peroxide; Sets 1-4; read-out: % Reduction of Hydrogen Peroxide TRPA1 Activation

| Structure (SMILES) | inhibition at 100 µM |
| --- | --- |
| CCCCCCO [1-hexanol] | 46.5% |
| C=CC(CCCCC)OC(C)=O (stereo not drawn) [1-octen-3-yl acetate] | 54.2% |
| CCCCCCCCCCCO [1-undecanol] | 51.8% |
| CSCSCSC [2,4,6-trithiaheptane] | 56.5% |
| Cc1ccc(C)c(O)c1 [2,5-dimethylphenol] | 50.8% |
| CC(=O)c1ccc(C)o1 [2-acetyl-5-methylfuran] | 58.3% |
| CCCCC(CC)CO (stereo not drawn) [2-ethyl-1-hexanol] | 53.2% |
| CCC(C)CS (stereo not drawn) [2-methyl-1-butanethiol] | 54.5% |
| CCC=C(C)C(=O)O [2-methyl-2-pentenoic acid] | 52.4% |
| CCOc1nccnc1C [2-methyl-3-ethoxypyrazine] | 54.6% |
| CCCCC(=O)C(C)C [2-methyl-3-heptanone] | 52.9% |
| CCCCCCCC(C)O (stereo not drawn) [2-nonanol] | 56.5% |
| CC=C(C=O)c1ccccc1 [2-phenyl-2-butenal] | 56.3% |
| CCC(=O)c1nccs1 [2-propionylthiazole] | 54% |
| CCCCCCCCCC(C)O (stereo not drawn) [2-undecanol] | 56.7% |
| CC(=O)c1cccnc1 [3-acetylpyridine, 98%, 3-acetylpyridine] | 57.7% |
| CCCC(=O)CC [3-hexanone] | 52% |
| O=C(O)c1cccc(O)c1 [3-hydroxybenzoic acid] | 53.4% |
| CCC(S)C(C)=O (stereo not drawn) [3-mercapto-2-pentanone] | 82.2% |

same assay, conditions: read-out: % Reduction of Hydrogen Peroxide TRPA1 Activation

| Structure (SMILES) | inhibition at 400 µM | inhibition at 100 µM |
| --- | --- | --- |
| CCCc1ccc(O)c(OC)c1 [2-Methoxy-4-propyl-phenol] | 43% |  |
| CC1=C(O)C(=O)CC1.O [2-hydroxy-3-methyl-2-cyclopenten-1-one hydrate] |  | 60.6% |
| CC(=O)CCc1ccc2c(c1)OCO2 [4-benzo[1,3]dioxol-5-yl-butan-2-one] |  | 48.7% |

Reference: US20130315843A1, “COMPOSITION FOR REDUCTION OF TRPA1 AND TRPV1 SENSATIONS” (priority 2012, published 2013)
